Legend:
Type in all cases: cell-based
[1] = target: T1, human TLR9 (Homo sapiens, UniProt Q9NR96); experiment: TLR9 inhibition reporter assay (HEK-Blue cells, SEAP reporter, ODN2006 stimulation); conditions: HEK-Blue cells overexpressing human TLR9, SEAP reporter, ODN2006 5 nM
T1 construct: host or cells: HEK-Blue cells (HEK293-derived reporter line)
T1 sequence (Q9NR96 26-1032): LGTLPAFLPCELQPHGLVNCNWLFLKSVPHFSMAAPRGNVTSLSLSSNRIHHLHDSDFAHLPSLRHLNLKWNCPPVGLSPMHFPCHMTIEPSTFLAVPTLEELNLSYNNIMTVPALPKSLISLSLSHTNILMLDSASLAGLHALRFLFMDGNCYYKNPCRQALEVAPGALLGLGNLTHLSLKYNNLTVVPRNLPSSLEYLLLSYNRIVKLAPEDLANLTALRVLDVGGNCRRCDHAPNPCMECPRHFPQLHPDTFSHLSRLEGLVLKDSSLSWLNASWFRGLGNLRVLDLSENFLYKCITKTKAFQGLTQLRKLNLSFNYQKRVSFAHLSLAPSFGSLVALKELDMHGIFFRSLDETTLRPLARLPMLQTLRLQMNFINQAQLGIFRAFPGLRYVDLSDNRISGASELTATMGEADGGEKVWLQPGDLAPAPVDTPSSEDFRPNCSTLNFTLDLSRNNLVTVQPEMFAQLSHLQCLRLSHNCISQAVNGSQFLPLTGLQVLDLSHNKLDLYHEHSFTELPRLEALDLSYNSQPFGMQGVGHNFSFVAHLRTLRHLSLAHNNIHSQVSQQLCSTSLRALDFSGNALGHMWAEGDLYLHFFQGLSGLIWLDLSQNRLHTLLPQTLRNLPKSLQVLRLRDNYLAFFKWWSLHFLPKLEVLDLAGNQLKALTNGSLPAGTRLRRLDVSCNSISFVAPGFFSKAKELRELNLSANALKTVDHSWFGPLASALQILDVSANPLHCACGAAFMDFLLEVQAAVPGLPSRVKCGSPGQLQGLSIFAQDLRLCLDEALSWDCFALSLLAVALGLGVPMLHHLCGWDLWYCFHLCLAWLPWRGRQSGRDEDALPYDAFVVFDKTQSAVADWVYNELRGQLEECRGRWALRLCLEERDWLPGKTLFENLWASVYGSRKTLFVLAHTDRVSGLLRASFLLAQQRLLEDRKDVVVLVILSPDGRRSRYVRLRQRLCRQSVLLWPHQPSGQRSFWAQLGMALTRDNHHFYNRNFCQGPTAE
Experimental: (§1) TLR7/8/9 Inhibition Reporter Assays
(§2) HEK-Blue™-cells (Invivogen) overexpressing human TLR7, TLR8 or TLR9 receptors were used for screening inhibitors of these receptors using an inducible SEAP (secreted embryonic alkaline phosphatase) reporter gene under the control of the IFN-β minimal promoter fused to five NF-κB and AP-1-binding sites. Briefly, cells are seeded into Greiner 384 well plates (15000 cells per well for TLR7, 20,000 for TLR8 and 25,000 for TLR9) and then treated with test compounds in DMSO to yield a final dose response concentration range of 0.05 nM-50 μM. After a 30 minute compound pre-treatment at room temperature, the cells are then stimulated with a TLR7 ligand (gardiquimod at a final concentration of 7.5 μM), TLR8 ligand (R848 at a final concentration of 15.9 μM) or TLR9 ligand (ODN2006 at a final concentration of 5 nM) to activate NF-κB and AP-1 which induce the production of SLAP After a 22 hour incubation at […], SLAP levels are determined with the addition of HLK-Blue™ Detection reagent (Invivogen), a cell culture medium that allows for detection of SLAP, according to manufacturer's specifications. The percent inhibition is determined as the […] in the HEK-Blue signal present in wells treated with agonist plus DMSO alone compared to wells treated with a known inhibitor.

[2] = target: T2, human TLR7 (Homo sapiens, UniProt Q9NYK1); experiment: TLR7 inhibition reporter assay (HEK-Blue cells, SEAP reporter, gardiquimod stimulation); conditions: HEK-Blue cells overexpressing human TLR7, SEAP reporter, gardiquimod 7.5 μM
T2 construct: host or cells: HEK-Blue cells (HEK293-derived reporter line)
T2 sequence (Q9NYK1 27-1049): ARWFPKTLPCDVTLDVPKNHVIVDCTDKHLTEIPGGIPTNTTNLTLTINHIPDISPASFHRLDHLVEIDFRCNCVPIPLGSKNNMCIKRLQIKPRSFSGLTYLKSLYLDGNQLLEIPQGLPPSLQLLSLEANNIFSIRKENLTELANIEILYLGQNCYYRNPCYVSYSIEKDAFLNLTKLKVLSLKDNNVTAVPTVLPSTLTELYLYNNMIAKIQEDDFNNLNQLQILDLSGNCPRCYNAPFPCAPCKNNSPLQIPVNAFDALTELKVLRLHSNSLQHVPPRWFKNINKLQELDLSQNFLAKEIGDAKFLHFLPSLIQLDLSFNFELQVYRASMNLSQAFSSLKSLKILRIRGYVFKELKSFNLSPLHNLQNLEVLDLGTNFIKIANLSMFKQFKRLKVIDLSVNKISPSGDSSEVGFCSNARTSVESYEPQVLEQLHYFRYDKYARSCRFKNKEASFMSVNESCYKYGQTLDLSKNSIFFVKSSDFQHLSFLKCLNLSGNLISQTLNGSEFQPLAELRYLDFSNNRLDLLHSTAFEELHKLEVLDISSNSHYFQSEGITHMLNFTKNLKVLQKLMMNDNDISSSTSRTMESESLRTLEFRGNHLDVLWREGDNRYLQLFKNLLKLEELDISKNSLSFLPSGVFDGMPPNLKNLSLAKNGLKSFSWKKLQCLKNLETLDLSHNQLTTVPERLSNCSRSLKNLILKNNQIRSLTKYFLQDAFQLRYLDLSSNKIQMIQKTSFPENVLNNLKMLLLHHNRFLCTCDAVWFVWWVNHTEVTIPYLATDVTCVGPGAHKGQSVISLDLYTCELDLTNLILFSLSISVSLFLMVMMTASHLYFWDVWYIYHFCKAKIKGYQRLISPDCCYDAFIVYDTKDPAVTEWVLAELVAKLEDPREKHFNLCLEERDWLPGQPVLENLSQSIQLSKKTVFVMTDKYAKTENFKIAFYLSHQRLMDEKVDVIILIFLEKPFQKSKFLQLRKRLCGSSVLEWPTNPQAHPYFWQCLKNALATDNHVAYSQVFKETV
Experimental: as §1, §2

[3] = target: T3, human TLR8 (Homo sapiens, UniProt Q9NR97); experiment: TLR8 inhibition reporter assay (HEK-Blue cells, SEAP reporter, R848 stimulation); conditions: HEK-Blue cells overexpressing human TLR8, SEAP reporter, R848 15.9 μM
T3 construct: host or cells: HEK-Blue cells (HEK293-derived reporter line)
T3 sequence (Q9NR97 27-1041): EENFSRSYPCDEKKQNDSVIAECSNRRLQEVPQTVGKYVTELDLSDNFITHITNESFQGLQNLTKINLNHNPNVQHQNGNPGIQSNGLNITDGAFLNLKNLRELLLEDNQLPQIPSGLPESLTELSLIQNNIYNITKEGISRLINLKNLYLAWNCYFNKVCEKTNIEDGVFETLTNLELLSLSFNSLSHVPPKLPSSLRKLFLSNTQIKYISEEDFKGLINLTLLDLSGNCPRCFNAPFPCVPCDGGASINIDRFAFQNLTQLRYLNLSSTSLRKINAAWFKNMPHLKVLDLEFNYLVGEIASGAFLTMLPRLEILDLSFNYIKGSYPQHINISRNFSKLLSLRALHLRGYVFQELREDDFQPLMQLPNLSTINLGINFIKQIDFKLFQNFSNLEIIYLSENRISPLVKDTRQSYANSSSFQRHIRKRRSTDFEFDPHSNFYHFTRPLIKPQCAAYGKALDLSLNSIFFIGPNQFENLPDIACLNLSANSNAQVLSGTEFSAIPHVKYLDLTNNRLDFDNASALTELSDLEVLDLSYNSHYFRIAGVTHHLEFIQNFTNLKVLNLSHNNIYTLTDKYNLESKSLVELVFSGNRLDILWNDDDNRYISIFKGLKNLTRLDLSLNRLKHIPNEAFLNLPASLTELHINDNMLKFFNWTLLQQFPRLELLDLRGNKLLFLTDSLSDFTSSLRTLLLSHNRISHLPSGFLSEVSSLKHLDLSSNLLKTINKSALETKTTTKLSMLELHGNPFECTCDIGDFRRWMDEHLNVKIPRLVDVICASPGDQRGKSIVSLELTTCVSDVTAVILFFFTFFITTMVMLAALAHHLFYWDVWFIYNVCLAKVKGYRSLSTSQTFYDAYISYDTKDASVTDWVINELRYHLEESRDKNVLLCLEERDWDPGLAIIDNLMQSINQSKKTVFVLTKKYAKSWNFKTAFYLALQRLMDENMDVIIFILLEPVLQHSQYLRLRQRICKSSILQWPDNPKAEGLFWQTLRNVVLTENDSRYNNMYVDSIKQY
Experimental: as §1, §2

IC50 [1]	IC50 [2]	IC50 [3]	Structure (SMILES)
1000 to 50000 nM	100 to 1000 nM	100 to 1000 nM	CNC(=O)CN1CCC(c2ccc3[nH]c(-c4cc(C)c5oc(=O)[nH]c5c4)c(C(C)C)c3c2)CC1 [Example 337, 2-(4-(3-isopropyl-2-(7-methyl-2-oxo-2,3-dihydrobenzo[d]oxazol-5-yl)-1H-indol-5-yl)piperidin-1-yl)-N-methylacetamide]
1000 to 50000 nM	< 100 nM	< 100 nM	Cc1cc(-c2[nH]c3ccc(C4CCN(C(=O)CN(C)C)CC4)cc3c2C(C)C)cn2nnnc12 [Example 477, 2-(dimethylamino)-1-(4-(3-isopropyl-2-(8-methyltetrazolo[1,5-a]pyridin-6-yl)-1H-indol-5-yl)piperidin-1-yl)ethan-1-one]
1000 to 50000 nM	< 100 nM	< 100 nM	Cc1cc(-c2[nH]c3ccc(C4CCN(C(=O)CCN5CCC(F)CC5)CC4)cc3c2C(C)C)cn2nnnc12 [Example 633, 3-(4-fluoropiperidin-1-yl)-1-(4-(3-isopropyl-2-(8-methyltetrazolo[1,5-a]pyridin-6-yl)-1H-ndol-5-yl)piperidin-1-yl)propan-1-one]
100 to 1000 nM	100 to 1000 nM	100 to 1000 nM	CC(C)c1c(-c2cnc3nccn3c2)[nH]c2ccc(C3CCN(CC(=O)N(C)C)CC3)cc12 [Example 363, 2-(4-(2-(imidazo[1,2-a]pyrimidin-6-yl)-3-isopropyl-1H-indol-5-yl)piperidin-1-yl)-N,N-dimethylacetamide]
1000 to 50000 nM	< 100 nM	< 100 nM	CCOc1cc(-c2[nH]c3ccc(C4CCN(CC(=O)N(C)C)CC4)cc3c2C(C)C)cc2ncnn12 [Example 350, 2-(4-(2-(5-ethoxy-[1,2,4]triazolo[1,5-a]pyridin-7-yl)-3-isopropyl-1H-indol-5-yl)piperidin-1-yl)-N,N-dimethylacetamide]
100 to 1000 nM	< 100 nM	100 to 1000 nM	CNCCN1CCC(c2ccc3[nH]c(-c4ccc5nc(C)cn5c4)c(C(C)C)c3c2)CC1 [Example 676, 2-(4-(3-isopropyl-2-(2-methylimidazo[1,2-a]pyridin-6-yl)-1H-indol-5-yl)piperidin-1-yl)-N-methylethan-1-amine]
100 to 1000 nM	< 100 nM	100 to 1000 nM	Cc1cn2cc(-c3[nH]c4ccc(C5CCN(C(=O)CN(C)C)CC5)cc4c3C(C)C)cc(C(F)(F)F)c2n1 [Example 511, 2-(dimethylamino)-1-(4-(3-isopropyl-2-(2-methyl-8-(trifluoromethyl)imidazo[1,2-a]pyridin-6-yl)-1H-indol-5-yl)piperidin-1-yl)ethan-1-one]
100 to 1000 nM	< 100 nM	100 to 1000 nM	CC(C)c1c(-c2ccc3cnnn3c2)[nH]c2ccc(C3CCNCC3)cc12 [Example 79, 6-(3-isopropyl-5-(piperidin-4-yl)-1H-indol-2-yl)-[1,2,3]triazolo[1,5-a]pyridine]
1000 to 50000 nM	< 100 nM	< 100 nM	Cc1cc(-c2[nH]c3ccc(C4CCN(CC(C)(C)O)CC4)cc3c2C(C)C)cc2ncnn12 [Example 756, 1-(4-(3-isopropyl-2-(5-methyl-[1,2,4]triazolo[1,5-a]pyridin-7-yl)-1H-indol-5-yl)piperidin-1-yl)-2-methylpropan-2-ol]
> 50000 nM	1000 to 50000 nM	1000 to 50000 nM	CCc1c(-c2ccnc3[nH]ncc23)[nH]c2ccc(C3CCNCC3)c(C)c12 [Example 254, 4-(3-ethyl-4-methyl-5-(piperidin-4-yl)-1H-indol-2-yl)-1H-pyrazolo[3,4-b]pyridine]
1000 to 50000 nM	< 100 nM	< 100 nM	CC(=O)N1CCCN(CC(=O)N2CCC(c3ccc4[nH]c(-c5ccnc6[nH]ncc56)c(C(C)C)c4c3)CC2)CC1 [Example 586, 2-(4-acetyl-1,4-diazepan-1-yl)-1-(4-(3-isopropyl-2-(1H-pyrazolo[3,4-b]pyridin-4-yl)-1H-indol-5-yl)piperidin-1-yl)ethan-1-one]
1000 to 50000 nM	< 100 nM	100 to 1000 nM	Cc1cc2nc(-c3[nH]c4ccc(C5CCNCC5)cc4c3C(C)C)c(F)cn2n1 [Example 148, 6-fluoro-5-(3-isopropyl-5-(piperidin-4-yl)-1H-indol-2-yl)-2-methylpyrazolo[1,5-a]pyrimidine]

Reference: patent US11739098B2 (BRISTOL-MYERS SQUIBB COMPANY, priority 2017, dated 2023)
